Measured values: publication PMC9326216, “Treatment of Cardiovascular Dysfunction with PDE3-Inhibitors in Moderate and Severe Hypothermia—Effects on Cellular Elimination of Cyclic Adenosine Monophosphate and Cyclic Guanosine Monophosphate” (Frontiers in Physiology, 2022)
Like-named read-outs stand apart in the source and are kept apart here.

Assays:
[1] = biological target: T1, PDE5 (Homo sapiens, UniProt O76074); experiment: Phosphodiesterase assay: inhibition of cGMP hydrolysis by recombinant PDE5; format: biochemical; conditions: for IC50: 5 µM cGMP, 30 min; for Ki: Cheng-Prusoff
T1 construct: purchased Sigma-Aldrich, St. Louis, United States
Protocol: The study drugs were tested upon their ability to hinder cAMP and cGMP hydrolysis by inhibiting PDE3 and PDE5 respectively. Either 5 µM cAMP or cGMP (Sigma-Aldrich, St. Louis, MO, United States) were used as substrates for the enzymes. The reaction was initiated by adding PDE to the assay solution in designated Eppendorf tubes, containing fresh incubation buffer (10 mM Tris, 8.2 mM Propionic acid, 3 mM Magnesium acetate, 1.5 mM EGTA and 0.5 mg/ml BSA, 0.2 mM DTT) selected substrate (cAMP or cGMP) and inhibitor. The reaction was initiated by adding 0.016 units/µl incubate of PDE3 (Abcam, Cambridge, United Kingdom), or 0.022 units/µl incubate of PDE5 (Sigma-Aldrich, St. Louis, United States). Control samples were free of drug and were either with or without PDE. The incubation time was 30 min in the selected temperature. Reaction was stopped by adding 99.9% methanol to the solutions. Internal standards of cGMP-13C5, cAMP-13C5, AMP-13C5 (Toronto Research Chemicals Inc., Ontario, Canada) and GMP-15N5 (Sigma-Aldrich, St. Louis, MO, United States) were added to each sample, before MS analysis.
Liquid chromatography tandem mass spectrometry (LC-MS) was used to assess concentrations of the inhibitors for experiments performed to determine intracellular access of these drugs, as well as to quantify levels of cAMP/AMP and cGMP/GMP for the PDE3-and PDE5-inhibition plots. Internal standards were used, as described previously.
IC50 and Ki values were calculated for each of the drugs, both for their ability to inhibit cAMP- and cGMP- efflux, as well as PDE3 and PDE5 activity. IC50 values were derived according to [Chou (1976)], and Ki values according to [Cheng and Prusoff (1973)]. Inhibition curves were created accordingly, both with and without adjustment for normothermic control.

[2] = test system: ABCC5; format: biochemical
Protocol: Freshly collected EDTA blood from healthy donors (n = 35) was prepared at 0°C–4°C, starting by separating the erythrocytes from plasma by centrifugation at 2,300 g for approximately 15 min. […] Lysis followed thereafter, with ten volumes of 5 mM Tris-HCl, 0.5 mM EGTA, 4 mM KCl (pH 8.1) and washed by repeated centrifugation at 20,000 g for 20 min and resuspension in the same buffer. Vesiculation was initiated by adding 39 volumes of a […] buffer ([…] Tris-HCl, pH 8.2) to one volume of cell suspension and completed by forcing the solution five times through a 27-gauge syringe needle to promote homogenization of the membranes. […] The resulting IOVs, which still contained ABC-transporters in the membrane, enabled us to control the intracellular environment, in this case the surrounding medium, and collect the cyclic nucleotides within. […] Radioactive labeled (^3H)-cAMP or (^3H)-cGMP (Perkin Elmer, Boston, MA, United States) were added to the incubation solutions in the concentration 20 and 2 μM, respectively, depending on the transporter examined, together with the appointed study drug in concentrations up to 1 mM. […] Next step was to collect the IOVs, which was done by filtration through a nitrocellulose membrane (Bio-Rad Laboratories, Feldkirchen, Germany), and then drying it. The resulting collection of radioactivity upon the filter, was later quantified by using a Packard TopCount NXT (Packard, Downers Grove, IL, United states) after adding scintillation fluid (MicroScint-O, PerkinElmer, Groningen, Netherlands).
IC50 and Ki values were calculated for each of the drugs, both for their ability to inhibit cAMP- and cGMP- efflux, as well as PDE3 and PDE5 activity. […] Inhibition curves were created accordingly, both with and without adjustment for normothermic control.

[3] = test system: PDE3; conditions: ref Pathak et al., 2013; cited from earlier work
Sequence of PDE3 (Q14432 whole entry): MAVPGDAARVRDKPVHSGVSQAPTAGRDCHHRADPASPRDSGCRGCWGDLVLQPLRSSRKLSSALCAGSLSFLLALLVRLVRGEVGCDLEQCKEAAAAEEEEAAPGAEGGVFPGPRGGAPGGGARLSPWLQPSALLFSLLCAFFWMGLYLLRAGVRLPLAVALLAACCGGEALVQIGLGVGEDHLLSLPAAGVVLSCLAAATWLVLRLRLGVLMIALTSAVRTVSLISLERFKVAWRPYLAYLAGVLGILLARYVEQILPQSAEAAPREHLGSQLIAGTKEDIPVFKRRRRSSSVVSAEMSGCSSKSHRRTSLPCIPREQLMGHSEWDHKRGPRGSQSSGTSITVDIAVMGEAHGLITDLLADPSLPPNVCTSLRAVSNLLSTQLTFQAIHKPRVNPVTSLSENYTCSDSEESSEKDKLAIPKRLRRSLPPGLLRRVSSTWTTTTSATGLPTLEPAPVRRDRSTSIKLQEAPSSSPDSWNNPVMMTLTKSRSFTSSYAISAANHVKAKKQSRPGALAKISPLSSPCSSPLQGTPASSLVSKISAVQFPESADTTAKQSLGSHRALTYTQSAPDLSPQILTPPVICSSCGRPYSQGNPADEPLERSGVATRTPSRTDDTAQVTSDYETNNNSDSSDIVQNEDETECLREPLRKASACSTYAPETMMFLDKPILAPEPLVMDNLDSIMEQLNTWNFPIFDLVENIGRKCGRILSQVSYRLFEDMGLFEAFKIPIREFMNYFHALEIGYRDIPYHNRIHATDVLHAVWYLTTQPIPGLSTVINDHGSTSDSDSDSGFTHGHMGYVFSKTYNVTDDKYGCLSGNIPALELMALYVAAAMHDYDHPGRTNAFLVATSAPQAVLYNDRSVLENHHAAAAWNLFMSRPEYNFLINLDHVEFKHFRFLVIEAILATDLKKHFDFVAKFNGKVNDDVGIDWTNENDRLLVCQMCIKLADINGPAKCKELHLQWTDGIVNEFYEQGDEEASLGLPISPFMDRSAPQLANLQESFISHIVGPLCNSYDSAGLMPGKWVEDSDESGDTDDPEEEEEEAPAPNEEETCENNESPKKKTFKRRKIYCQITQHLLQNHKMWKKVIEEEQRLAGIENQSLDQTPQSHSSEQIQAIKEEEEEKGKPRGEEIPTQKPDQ

| SMILES | IC50 ([1]; 20°C) [µM] | Ki ([1]; 20°C) [µM] | IC50 ([1]; 24°C) [µM] | Ki ([1]; 24°C) [µM] | IC50 ([1]; 28°C) [µM] | Ki ([1]; 28°C) [µM] | IC50 ([1]; 32°C) [µM] | Ki ([1]; 32°C) [µM] | IC50 ([1]; 34°C) [µM] | Ki ([1]; 34°C) [µM] | IC50 ([1]; 37°C) [µM] | Ki ([1]; 37°C) [µM] | other results |
| --- | --- | --- | --- | --- | --- | --- | --- | --- | --- | --- | --- | --- | --- |
| Nc1cc(-c2ccncc2)c[nH]c1=O [Amrinone] | 105 ± 8.04 | 26.7 ± 2.04 | 99.1 ± 4.2 | 25.1 ± 1.07 | 95 ± 7.29 | 24.1 ± 1.85 | 84.5 ± 5.94 | 21.5 ± 1.51 | 91.9 ± 3.65 | 23.3 ± 0.93 | 110 ± 12.8 | 27.8 ± 3.25 |  |
| C[C@@H]1CC(=O)NN=C1c1ccc(NN=C(C#N)C#N)cc1 [Levosimendan] | 157 ± 27.5 | 39.9 ± 6.97 | 148 ± 26.1 | 37.6 ± 6.63 | 183 ± 23 | 46.4 ± 5.85 | 162 ± 22.5 | 41.2 ± 5.71 | 150 ± 13.5 | 38 ± 3.41 | 155 ± 4.74 | 39.2 ± 1.2 | Drug selectivity (IC50)/(IC50): (cGMP-efflux)/(PDE5) inhibition ([2]; 20°C): 0.045; Drug selectivity (IC50)/(IC50): (cGMP-efflux)/(PDE5) inhibition ([2]; 24°C): 0.124; Drug selectivity (IC50)/(IC50): (cGMP-efflux)/(PDE5) inhibition ([2]; 28°C): 0.065; Drug selectivity (IC50)/(IC50): (cGMP-efflux)/(cAMP-efflux) inhibition ([2]; 28°C): 0.44; Drug selectivity (IC50)/(IC50): (cGMP-efflux)/(PDE5) inhibition ([2]; 32°C): 0.081; Drug selectivity (IC50)/(IC50): (cGMP-efflux)/(cAMP-efflux) inhibition ([2]; 32°C): 0.80; Drug selectivity (IC50)/(IC50): (cGMP-efflux)/(PDE5) inhibition ([2]; 34°C): 0.093; Drug selectivity (IC50)/(IC50): (cGMP-efflux)/(cAMP-efflux) inhibition ([2]; 34°C): 1.09; Drug selectivity (IC50)/(IC50): (cGMP-efflux)/(PDE5) inhibition ([2]; 37°C): 0.184; Drug selectivity (IC50)/(IC50): (cGMP-efflux)/(cAMP-efflux) inhibition ([2]; 37°C): 3.03; Concentration at which it acts as a PDE3 inhibitor [3]: > 0.3 µM |
